Reference: patent US4921866A, “1,3-dioxanes” (Imperial Chemical Industries plc, priority 1987, dated 1990)
pIC50: −log10 of the molar value. Entries after “also recorded” stand apart in the source; their conditions may differ.

How the values were obtained:
[1] = molecular target: T1, TXA2 receptor (Rattus norvegicus, UniProt P34978); assay: test (a): rat aortic strip model, U46619 as agonist; assay type: cell-based; conditions: read-out: pA2 (converted)
T1 construct: The rat aortic strip model; from tissue; host or cells: rat aortic strip
T1 sequence (P34978 1-341): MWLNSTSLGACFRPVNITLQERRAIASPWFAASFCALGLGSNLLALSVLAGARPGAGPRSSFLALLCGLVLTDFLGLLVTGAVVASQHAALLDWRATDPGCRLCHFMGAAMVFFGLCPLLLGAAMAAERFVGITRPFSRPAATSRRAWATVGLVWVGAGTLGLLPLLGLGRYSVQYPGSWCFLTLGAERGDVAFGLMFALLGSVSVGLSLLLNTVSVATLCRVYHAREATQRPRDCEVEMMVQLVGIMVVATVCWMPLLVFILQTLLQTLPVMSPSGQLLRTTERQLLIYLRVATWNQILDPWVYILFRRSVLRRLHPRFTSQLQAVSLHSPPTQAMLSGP
Source text: (a) The rat aortic strip model (based on that devised by Piper and Vane (Nature, 1969, 223, 29-35) in the rabbit) using as agonist the TXA2 mimetic agent known as U46619 (described by R. L. Jones et alia in "Chemistry, Biochemistry and Pharmacological Activity of Prostanoids" edited by S. M. Roberts and F. Scheinmann, at page 211; Pergamon Press, 1979);

[2] = molecular target: T2, TXA2 receptor (Homo sapiens, UniProt P21731); assay: test (b): blood platelet aggregation test, U46619 stimulated, human platelet-rich plasma; assay type: cell-based
T2 construct: aggregating human, citrated, platelet-rich plasma; endogenous in cells; host or cells: human platelets in citrated platelet-rich plasma
T2 sequence (P21731 1-343): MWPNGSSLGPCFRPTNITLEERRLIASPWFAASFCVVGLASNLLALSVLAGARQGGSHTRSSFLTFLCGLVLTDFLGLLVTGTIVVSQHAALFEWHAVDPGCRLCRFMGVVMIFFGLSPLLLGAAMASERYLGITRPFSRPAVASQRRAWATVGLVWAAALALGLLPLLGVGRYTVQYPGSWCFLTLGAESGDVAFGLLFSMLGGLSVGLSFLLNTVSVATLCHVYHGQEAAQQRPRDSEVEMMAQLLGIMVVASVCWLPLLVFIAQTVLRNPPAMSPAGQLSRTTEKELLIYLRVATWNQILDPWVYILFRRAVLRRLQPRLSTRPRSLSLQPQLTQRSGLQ
Source text: (b) a blood platelet aggregation test based on that described by Born (Nature, 1962, 194, 927-929) and involving:
(i) aggregating human, citrated, platelet-rich plasma by addition of the TXA2 mimetic agent U46619 so that a dose-response curve is generated;
(ii) generating a dose-response curve for U46619 stimulated platelet aggregation in the presence of increasing amounts of test compound (generally in the range 10^-5 M to 10^-10 M); and
(iii) calculating a KB value indicating potency of TXA2 antagonism for the test compound, average over several concentrations, from the calculated 50% response value for U46619 aggregation in the presence and absence of test compound; or […]

[3] = TXA2 antagonist and/or TXA2 synthase inhibitory properties (general statement, standard tests); conditions: qualitative statement
Method: (§1) The samples treated with anti-coagulant are first incubated at 37° C. with collegen (at about 100 micro M), then mixed with the cyclooxygenase inhibitor indomethancin (at about […]), centrifuged and the level of the TXA2 metabolite TXB2 determined by a standard radioimmunoassay technique. By comparison of the amount of TXB2 present in the plasma from animals dosed with test compound with that in the plasma of a control group dosed with placebo, the TXA2 synthase inhibitory properties may be assessed.

[4] = test system: TXA2 synthase; assay: test (f): TXB2 production in blood samples from dosed laboratory animals; assay type: in vivo, rat; conditions: 3 hours following an oral dose of 100 mg/kg to rats
Method: as §1

[5] = observation of signs of toxicity in rats in test (f); assay type: in vivo, rat; conditions: oral dose of 100 mg/kg to rats
[6] = molecular target: T3, TXA2 synthase (Homo sapiens, UniProt P24557); assay: test (e): in vitro TXA2 synthase inhibition, human platelet microsomal TXA2 synthase preparation; assay type: biochemical
T3 construct: using a human platelet microsomal TXA2 synthase preparation; from tissue; host or cells: human platelet microsomes
T3 sequence (P24557 1-533): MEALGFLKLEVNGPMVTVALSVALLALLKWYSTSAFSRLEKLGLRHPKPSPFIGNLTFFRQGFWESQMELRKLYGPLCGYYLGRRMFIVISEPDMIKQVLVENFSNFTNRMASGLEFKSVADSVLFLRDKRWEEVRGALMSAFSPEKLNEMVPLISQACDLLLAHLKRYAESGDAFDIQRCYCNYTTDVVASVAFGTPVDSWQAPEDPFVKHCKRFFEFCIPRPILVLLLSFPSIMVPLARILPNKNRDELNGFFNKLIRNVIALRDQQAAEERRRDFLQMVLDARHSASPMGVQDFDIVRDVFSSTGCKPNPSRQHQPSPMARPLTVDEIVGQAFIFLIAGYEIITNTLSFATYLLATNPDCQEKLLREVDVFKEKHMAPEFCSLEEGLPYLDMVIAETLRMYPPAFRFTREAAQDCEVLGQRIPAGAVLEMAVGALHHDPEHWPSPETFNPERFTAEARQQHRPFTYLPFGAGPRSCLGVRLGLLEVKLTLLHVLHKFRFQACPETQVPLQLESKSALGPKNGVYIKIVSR

Compound | TXA2 antagonist and/or TXA2 synthase inhibitory properties [3] | also measured
O=C(O)CC/C=C\C[C@@H]1CO[C@H](c2cccnc2)O[C@@H]1c1ccccc1O (relative stereo) [Example 1, 4(Z)-6-([2,4,5-cis]-4-o-hydroxyphenyl-2-[3-pyridyl]-1,3-dioxan-5-yl)hexenoic acid] | combined antagonist and TXA2 synthase inhibitory properties; also recorded: both TXA2 antagonist and TXA2 synthase inhibitory properties | Kb [1]: 79.4 nM; Kb [2]: 17 nM; inhibition of TXB2 production [4]: essentially complete inhibition of TXB2 production; observable signs of toxicity to the test animals [5]: without any observable signs of toxicity; pIC50 [6]: 5.50
O=C(O)CCC/C=C\C[C@@H]1CO[C@H](Cc2cccnc2)O[C@@H]1c1ccccc1O (relative stereo) [Example 2, 5(Z)-7-([2,4,5-cis]-4-o-hydroxyphenyl-2-[3-pyridylmethyl]-1,3-dioxan-5-yl)heptenoic acid] | combined antagonist and TXA2 synthase inhibitory properties | 
O=C(O)CC/C=C\C[C@@H]1CO[C@H](c2ccccn2)O[C@@H]1c1ccccc1O (relative stereo) [Example 4, 4(Z)-6-([2,4,5-cis]-4-o-hydroxyphenyl-2-[2-pyridyl]-1,3-dioxan-5-yl)hexenoic acid] | TXA2 antagonist properties | 
O=C(O)CCCC/C=C\C[C@@H]1CO[C@H](c2ccncc2)O[C@@H]1c1ccccc1O (relative stereo) [Example 9, 6(Z)-8-([2,4,5-cis]-4-o-hydroxyphenyl-2-[4-pyridyl]-1,3-dioxan-5-yl)octenoic acid] | predominantly TXA2 synthase inhibitory properties | 
O=C(O)CC/C=C\C[C@@H]1CO[C@H](Cc2ccccn2)O[C@@H]1c1ccccc1O (relative stereo) [Example 11, 4(Z)-6-([2,4,5-cis]-4-o-hydroxyphenyl-2-[2-pyridylmethyl]-1,3-dioxan-5-yl)hexenoic acid] | TXA2 antagonist properties | 
O=C(O)CC/C=C\C[C@@H]1CO[C@H](Cc2cccnc2)O[C@@H]1c1ccccc1O (relative stereo) [Example 12, 4(Z)-6-([2,4,5-cis]-4-o-hydroxyphenyl-2-[3-pyridylmethyl]-1,3-dioxan-5-yl)hexenoic acid] | combined antagonist and TXA2 synthase inhibitory properties | 
O=C(O)CCC/C=C\C[C@@H]1CO[C@H](Cc2cccnc2)O[C@@H]1c1ccccc1 (relative stereo) [Example 16, 5(Z)-7-(4-phenyl-2-[3-pyridylmethyl]-1,3-dioxan-5-yl)heptenoic acid] | predominantly TXA2 synthase inhibitory properties | 
CC(C)(c1cccnc1)[C@H]1OC[C@@H](C/C=C\CCC(=O)O)[C@@H](c2ccccc2O)O1 (relative stereo) [Example 17, 4(Z)-6-([2,4,5-cis]-4-o-hydroxyphenyl-2-[1-(3-pyridyl)-1-methylethyl]-1,3-dioxan-5-yl)hexenoic acid] | combined antagonist and TXA2 synthase inhibitory properties | 
CC(C)(Cc1cccnc1)[C@H]1OC[C@@H](C/C=C\CCC(=O)O)[C@@H](c2ccccc2O)O1 (relative stereo) [Example 18, 4(Z)-6-([2,4,5-cis]-4-o-hydroxyphenyl-2-[2-(3-pyridyl)-1,1-dimethylethyl]-1,3-dioxan-5-yl)hexenoic acid] | combined antagonist and TXA2 synthase inhibitory properties | 
CC(C)(c1cccnc1)[C@H]1OC[C@@H](C/C=C\CCCC(=O)O)[C@@H](c2ccccc2O)O1 (relative stereo) [Example 19, 5(Z)-7-([2,4,5-cis]-4-o-hydroxyphenyl-2[1-(3-pyridyl)-1-methylethyl]-1,3-dioxan-5-yl)heptenoic acid] | combined antagonist and TXA2 synthase inhibitory properties | 
CC(C)(Oc1cccnc1)[C@H]1OC[C@@H](C/C=C\CCC(=O)O)[C@@H](c2ccccc2O)O1 (relative stereo) [Example 23, 4(Z)-6-([2,4,5-cis]-4-o-hydroxyphenyl-2-[1-(3-pyridyloxy)-1-methylethyl]-1,3-dioxan-5-yl)hexenoic acid] | combined antagonist and TXA2 synthase inhibitory properties | 
